pIC50: −log10 of the molar value.
Columns and labels:
[1] = molecular target: T1, TDO2 in A172 cancer cells (Homo sapiens, UniProt P48775); test: TDO2 Cellular Assay (kynurenine production in A172 cancer cells); format: cell-based; settings: L-Trp 1 mM, 24 hours incubation, kynurenine at 490 nm
T1 construct: endogenous in cells; host or cells: A172 cancer cells
Procedure, shortened: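 Kynurenine output of A172 cells was read colorimetrically at 490 nm (Ehrlich reagent after TCA hydrolysis at 50 °C). Cells had 1 mM L-Trp plus compound at 0–25 μM in 0.25% DMSO for 24 h; IC50 values were fitted non-linearly from percent inhibition relative to vehicle.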

[2] = molecular target: T2, IDO1 in Hela cancer cells (Homo sapiens, UniProt P14902); test: IDO1 Cellular Assay (kynurenine production in IFN-γ stimulated Hela cancer cells); format: cell-based; settings: human IFN-γ 50 ng/mL, 48 hours incubation, kynurenine at 490 nm
T2 construct: endogenous in cells; host or cells: Hela cancer cells stimulated with human IFN-γ
T2 sequence (P14902 whole entry): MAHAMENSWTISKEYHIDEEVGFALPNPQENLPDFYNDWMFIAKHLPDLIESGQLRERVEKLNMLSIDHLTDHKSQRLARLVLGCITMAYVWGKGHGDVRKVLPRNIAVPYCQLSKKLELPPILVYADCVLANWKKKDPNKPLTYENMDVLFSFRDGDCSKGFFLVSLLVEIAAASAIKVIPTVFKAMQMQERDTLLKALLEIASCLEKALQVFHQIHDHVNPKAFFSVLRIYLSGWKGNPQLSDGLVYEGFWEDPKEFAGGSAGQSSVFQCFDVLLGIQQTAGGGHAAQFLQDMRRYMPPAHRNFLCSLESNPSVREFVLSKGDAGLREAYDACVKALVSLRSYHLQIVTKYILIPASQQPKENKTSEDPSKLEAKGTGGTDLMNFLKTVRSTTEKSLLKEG
Procedure: Hela cancer cells (5×10^3 per well) with 85 μL DMEM medium containing 10% FBS were seeded in a 96-well plate and incubated at 95% humidity and 5% CO2 at 37° C. for 24 hours. human IFN-γ (10 μL, 50 ng/mL final concentration) and 5 μL serial dilutions of the test compounds were added into each well. The test compounds were dissolved in DMSO, and successively diluted with pH7.5 buffer (with final DMSO concentration of 0.25%) resulting in final concentrations of the test compounds ranging from 0 to 25 μM (0, 2.5, 7.5, 25, 75, 250, 750, 2500, 7500, & 25000 nM). After 48 hours of incubation, 70 uL of the supernatant per well was transferred to a new 96 well plate. Trichloroacetic acid (6.1 N, 8 μL) was mixed into each well and incubated at 50° C. for 30 min to hydrolyze N-formylkynurenine produced by IDO to kynurenine. The reaction mixture was then centrifuged for 10 min at 2500 RPM to remove sediments. 50 μL of the supernatant per well was transferred to another 96 well plate and mixed with 50 uL of 2% (w/v) p-dimethylaminobenzaldehyde in acetic acid. The yellow color derived from kynurenine was measured at 490 nm using a microplate reader. Percent inhibition of the test compounds was determined by measuring the decrease in kynurenine as compared to the control of DMSO vehicle, which was calculated by formula of (WC-WT)/WC, where WC is the mean absorbance of the control well minus blank well; WT is the mean absorbance of the test well minus the blank well. Data was analyzed by GraphPad Prism 5 and the IC50 values were obtained by non-linear regression.
The IC50 values of for Compounds disclosed are listed in Table 2, A′: ≤0.5 μM; B′: >0.5 μM and ≤1 μM; C′: >1.0 μM and ≤5 uM; and D′: >5 μM.

T1 sequence (P48775 whole entry): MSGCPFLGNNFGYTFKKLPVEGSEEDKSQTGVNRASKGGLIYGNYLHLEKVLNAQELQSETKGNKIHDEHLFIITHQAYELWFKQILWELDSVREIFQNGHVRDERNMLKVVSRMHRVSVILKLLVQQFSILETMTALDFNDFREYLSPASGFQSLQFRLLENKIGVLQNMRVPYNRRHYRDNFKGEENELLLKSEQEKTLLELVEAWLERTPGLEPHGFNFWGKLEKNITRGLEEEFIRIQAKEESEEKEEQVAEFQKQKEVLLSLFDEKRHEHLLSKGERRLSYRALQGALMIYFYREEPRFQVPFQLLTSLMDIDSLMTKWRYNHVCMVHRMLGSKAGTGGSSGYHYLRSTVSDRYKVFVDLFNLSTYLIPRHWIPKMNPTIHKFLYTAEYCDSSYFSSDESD

Row | SMILES | pIC50 [1] | pIC50 [2]
1 | N#Cc1ccc(C(=O)N2C[C@@H]3C[C@@](O)(c4cc(Cl)cc5[nH]ncc45)C[C@@H]3C2)cc1 [Example 42, 4-((3aR,5r,6aS)-5-(6-chloro-1H-indazol-4-yl)-5-hydroxyoctahydrocyclopenta[c]pyrrole-2-carbonyl)benzonitrile] | ≥ 6.30 | 5.30 to 6.00
2 | CC1(C)[C@H]2CN(c3cc(C(F)(F)F)cn4cncc34)C[C@H]2CN1S(C)(=O)=O (racemic) [Example 46, Racemic-8-((3aR,6aS)-4,4-dimethyl-5-(methylsulfonyl)hexahydropyrrolo[3,4-c]pyrrol-2(1H)-yl)-6-(trifluoromethyl)imidazo[1,5-a]pyridine] | 5.30 to 6.00 | < 5.30
3 | CC(=O)N1C[C@@H]2CN(c3cc(Cl)cc4cncn34)C[C@@H]2C1(C)C (racemic) [Example 43, Racemic-1-((3aS,6aR)-5-(7-chloroimidazo[1,5-a]pyridin-5-yl)-1,1-dimethylhexahydropyrrolo[3,4-c]pyrrol-2(1H)-yl)ethanone] | < 5.30 | < 5.30
4 | O=C(N[C@H]1[C@@H]2C[C@@](O)(c3cc(Cl)cc4[nH]ncc34)C[C@@H]21)c1ccncc1 [Example 83, N-((1R,3r,5S,6r)-3-(6-chloro-1H-indazol-4-yl)-3-hydroxybicyclo[3.1.0]hexan-6-yl)isonicotinamide] | ≥ 6.30 | 6.00 to 6.30
5 | CNS(=O)(=O)N[C@H]1[C@@H]2C[C@@](O)(c3cc(Cl)cc4[nH]ncc34)C[C@@H]21 [Example 9, N′-methyl-N-((1R,3r,5S,6r)-3-(6-chloro-1H-indazol-4-yl)-3-hydroxybicyclo[3.1.0]hexan-6-yl)sulfuric diamide] | ≥ 6.30 | ≥ 6.30
6 | O=C(N[C@H]1[C@@H]2C[C@@](O)(c3cc(Cl)cc4[nH]ncc34)C[C@@H]21)c1ccc(F)c(Cl)c1 [Example 150, 3-chloro-N-((1R,3r,5S,6r)-3-(6-chloro-1H-indazol-4-yl)-3-hydroxybicyclo[3.1.0]hexan-6-yl)-4-fluorobenzamide] | ≥ 6.30 | ≥ 6.30
7 | CS(=O)(=O)N[C@H]1[C@@H]2C[C@@](O)(c3cc(C(F)(F)F)cc4[nH]ncc34)C[C@@H]21 [Example 10, N-((1R,3r,5S,6r)-3-hydroxy-3-(6-(trifluoromethyl)-1H-indazol-4-yl)bicyclo[3.1.0]hexan-6-yl)methanesulfonamide] | ≥ 6.30 | 5.30 to 6.00
8 | CS(=O)(=O)N1C[C@@H]2C[C@@](O)(c3cc(Cl)cc4cn[nH]c34)C[C@@H]2C1 [Example 96, (3aR,5r,6aS)-5-(5-chloro-1H-indazol-7-yl)-2-(methylsulfonyl)octahydrocyclopenta[c]pyrrol-5-ol] | 5.30 to 6.00 | 5.30 to 6.00
9 | CC(=O)N1C[C@H]2CC(C(O)c3cc(Cl)cc4cn[nH]c34)C[C@H]2C1 (stereo partly drawn) [Example 112, 1-((3aR,6aS)-5-((5-chloro-1H-indazol-7-yl)(hydroxy)methyl)hexahydrocyclopenta[c]pyrrol-2(1H)-yl)ethanone] | < 5.30 | 6.00 to 6.30
10 | NS(=O)(=O)N[C@H]1[C@@H]2C[C@@](O)(c3cc(Cl)cc4[nH]ncc34)C[C@@H]21 [Example 140, N-((1R,3r,5S,6r)-3-(6-chloro-1H-indazol-4-yl)-3-hydroxybicyclo[3.1.0]hexan-6-yl)sulfuric diamide] | ≥ 6.30 | ≥ 6.30
11 | O=C(N[C@H]1[C@@H]2C[C@@](O)(c3cc(Cl)cc4[nH]ncc34)C[C@@H]21)c1nc2cc(Cl)ccc2[nH]1 [Example 136, 5-chloro-N-((1R,3r,5S,6r)-3-(6-chloro-1H-indazol-4-yl)-3-hydroxybicyclo[3.1.0]hexan-6-yl)-1H-benzo[d]imidazole-2-carboxamide] | ≥ 6.30 | 5.30 to 6.00
12 | CNS(=O)(=O)N1C[C@@H]2C[C@@](O)(c3cc(Cl)cc4[nH]ncc34)C[C@@H]2C1 [Example 87, (3aR,5r,6aS)-5-(6-chloro-1H-indazol-4-yl)-5-hydroxy-N-methylhexahydrocyclopenta[c]pyrrole-2(1H)-sulfonamide] | ≥ 6.30 | 5.30 to 6.00
13 | O=C(N[C@H]1[C@@H]2C[C@@](O)(c3cc(Cl)cc4cn[nH]c34)C[C@@H]21)C1CC1 [Example 107, N-((1R,3r,5S,6r)-3-(5-chloro-1H-indazol-7-yl)-3-hydroxybicyclo[3.1.0]hexan-6-yl)cyclopropanecarboxamide] | ≥ 6.30 | < 5.30
14 | O=S(=O)(C1CCOCC1)N1C[C@@H]2C[C@@](O)(c3cc(Cl)cc4cn[nH]c34)C[C@@H]2C1 [Example 101, (3aR,5r,6aS)-5-(5-chloro-1H-indazol-7-yl)-2-((tetrahydro-2H-pyran-4-yl)sulfonyl)octahydrocyclopenta[c]pyrrol-5-ol] | 5.30 to 6.00 | < 5.30
15 | CC(=O)N1C[C@@H]2CN(c3cc(C(F)(F)F)cc4cncn34)C[C@@H]2C1(C)C (racemic) [Example 51, Racemic-1-((3aS,6aR)-1,1-dimethyl-5-(7-(trifluoromethyl)imidazo[1,5-a]pyridin-5-yl)hexahydropyrrolo[3,4-c]pyrrol-2(1H)-yl)ethanone] | < 5.30 | < 5.30

Second part, the molecule after the results:

Row | pIC50 [1] | pIC50 [2] | SMILES
16 | ≥ 6.30 | < 5.30 | O=C(N[C@H]1[C@@H]2C[C@@](O)(c3cc(Cl)cc4[nH]ncc34)C[C@@H]21)c1cnon1 [Example 159, N-((1R,3r,5S,6r)-3-(6-chloro-1H-indazol-4-yl)-3-hydroxybicyclo[3.1.0]hexan-6-yl)-1,2,5-oxadiazole-3-carboxamide]
17 | ≥ 6.30 | ≥ 6.30 | O=C(N[C@H]1[C@@H]2C[C@@](O)(c3cc(Cl)cc4[nH]ncc34)C[C@@H]21)c1cccc(C2CC2)c1 [Example 178, N-((1R,3r,5S,6r)-3-(6-chloro-1H-indazol-4-yl)-3-hydroxybicyclo[3.1.0]hexan-6-yl)-3-cyclopropylbenzamide]
18 | ≥ 6.30 | ≥ 6.30 | O=C(N[C@H]1[C@@H]2C[C@@](O)(c3cc(C(F)(F)F)cc4[nH]ncc34)C[C@@H]21)c1cccc(Cl)c1 [Example 163, 3-chloro-N-((1R,3r,5S,6r)-3-hydroxy-3-(6-(trifluoromethyl)-1H-indazol-4-yl)bicyclo[3.1.0]hexan-6-yl)benzamide]
19 | ≥ 6.30 | ≥ 6.30 | O=C(N[C@H]1[C@@H]2C[C@@](O)(c3cc(Cl)cc4[nH]ncc34)C[C@@H]21)c1cncc(Br)c1 [Example 170, 5-bromo-N-((1R,3r,5S,6r)-3-(6-chloro-1H-indazol-4-yl)-3-hydroxybicyclo[3.1.0]hexan-6-yl)nicotinamide]
20 | ≥ 6.30 | ≥ 6.30 | O=C(N[C@H]1[C@@H]2C[C@@](O)(c3cc(Cl)cc4[nH]ncc34)C[C@@H]21)c1ccnc(C(F)(F)F)c1 [Example 156, N-((1R,3r,5S,6r)-3-(6-chloro-1H-indazol-4-yl)-3-hydroxybicyclo[3.1.0]hexan-6-yl)-2-(trifluoromethyl)isonicotinamide]
21 | ≥ 6.30 | 5.30 to 6.00 | CS(=O)(=O)c1cccc(C(=O)N[C@H]2[C@@H]3C[C@@](O)(c4cc(Cl)cc5[nH]ncc45)C[C@@H]32)c1 [Example 153, N-((1R,3r,5S,6r)-3-(6-chloro-1H-indazol-4-yl)-3-hydroxybicyclo[3.1.0]hexan-6-yl)-3-(methylsulfonyl)benzamide]
22 | ≥ 6.30 | 5.30 to 6.00 | O=C(Nc1ccc(Cl)cc1)N1C[C@@H]2C[C@@](O)(c3cc(Cl)cc4[nH]ncc34)C[C@@H]2C1 [Example 165, (3aR,5r,6aS)-5-(6-chloro-1H-indazol-4-yl)-N-(4-chlorophenyl)-5-hydroxyhexahydrocyclopenta[c]pyrrole-2(1H)-carboxamide]
23 | ≥ 6.30 | 5.30 to 6.00 | Cn1cc(C(=O)N[C@H]2[C@@H]3C[C@@](O)(c4cc(Cl)cc5[nH]ncc45)C[C@@H]32)cn1 [Example 155, N-((1R,3r,5S,6r)-3-(6-chloro-1H-indazol-4-yl)-3-hydroxybicyclo[3.1.0]hexan-6-yl)-1-methyl-1H-pyrazole-4-carboxamide]
24 | ≥ 6.30 | 6.00 to 6.30 | Cc1cc(C(=O)N[C@H]2[C@@H]3C[C@@](O)(c4cc(Cl)cc5[nH]ncc45)C[C@@H]32)no1 [Example 154, N-((1R,3r,5S,6r)-3-(6-chloro-1H-indazol-4-yl)-3-hydroxybicyclo[3.1.0]hexan-6-yl)-5-methylisoxazole-3-carboxamide]
